Experimental data published in US5705662A, “17-(3-imino-2-alkylpropenyl)-5β, 14β-androstane derivatives active on the cardiovascular system, processes for their preparation and pharmaceutical compositions containing same” (Sigma-Tau Industrie Farmaceutiche Riunite S.p.A., priority 1994, dated 1998).

How the values were obtained:
Na^+,K^+ -ATPase [1] = conditions: J. Med. Chem. 1978, 21, 284; Quant. Struct.-Act. Relat. 1988, 7, 160; DE 4,227,605; DE 4,227,626; cited from earlier work
[2] = J. Med. Chem. 1978, 21, 284; Quant. Struct.-Act. Relat. 1988, 7, 160; cited from earlier work
Na^+,K^+ -ATPase [3] = molecular target: T1, Na^+,K^+ -ATPase (Canis lupus familiaris, UniProt P50997); assay: inhibition of the activity of the purified Na+,K+-ATPase (% hydrolysis of 32P-ATP); type: biochemical; conditions: purified Na+,K+-ATPase, 32P-ATP hydrolysis; read-out: Inhibitory Activity log IC50 (converted)
T1 construct: Na^+,K^+ -ATPase receptor purified according to Jorghensen; from tissue
Source text: (§1) To test the affinity for the receptor site of the Na^+,K^+ -ATPase and the agonist or antagonist activity on the enzyme, the following tests were used:
b) inhibition of the activity of the purified Na^+,K^+ -ATPase measured as % of hydrolysis of ^32 P-ATP in presence and in absence of the tested compound (Doucet A. et al. Am. J. Physiol., 1986, 251, F851)

Na^+,K^+ -ATPase [4] = molecular target: T1, Na^+,K^+ -ATPase; assay: displacement of the specific 3H-ouabain binding from the purified Na+,K+-ATPase receptor; conditions: 3H-ouabain displacement, purified Na+,K+-ATPase; read-out: Binding ^3 H-Ouab. Displacement log IC50 (converted)
Source text: as §1
a) displacement of the specific ^3 H-ouabain binding from the Na^+,K^+ -ATPase receptor purified according to Jorghensen (Jorghensen P., BBA. 1974, 356, 36) and Erdmann (Erdmann E. et al., Arzneim. Forsh., 1984, 34, 1314);

[5] = tested on: spontaneous hypertensive rats (MHS); assay: effect of 5 week-treatment on the development of hypertension in MHS rats (SBP and HR, tail cuff method); type: in vivo, rat (MHS); conditions: 10 mg/Kg/os daily in Methocel 0.5% w/v, 5 weeks, controls 171 +/- 4.5
Description: (§2) Systolic blood pressure (SBP) and heart rate (HR) were measured. by the tail cuff method, in young prehypertensive male rats (MHS or SHR) strains before the development of hypertension (4 weeks of age) for recording the basal values of SBP. Groups of 7 rats were formed and subdivided in control and treated groups. The compound, suspended in Methocel 0.5 % (w/v). was orally given daily for at least 5 weeks to the treated groups. The control group received only Methocel.
(§3) SBP and HR were measured weekly 6 and 24 hrs after treatment. After 5 weeks of treatment, when hypertension was fully developed in the control group (9 weeks of age), washout was started for at least one week, to verify whether the treatment maintained blood pressure low or reestablished the basal values. […] (Takeda K. et al., Japan J. Pharmacol., 1979, 29,171: Takeda K. et al. Japan J. Pharmacol., 1982, 32, 283; Richer C. et al. Eur. J. Pharmacol, 1978, 47,393).

[6] = as above; type: in vivo, rat (MHS); conditions: 10 mg/Kg/os daily in Methocel 0.5% w/v, 5 weeks, controls 375 +/- 7.3
Description: as §2, §3

SMILES	inhibition of Na+,K+-ATPase (in words) (Na^+,K^+ -ATPase [1])	positive inotropic activity (in words) [2]	IC50 (Na^+,K^+ -ATPase [3]) [nM]	IC50 (Na^+,K^+ -ATPase [4]) [nM]	SBP [5]	HR [6]
C[C@]12CC[C@H](O)C[C@H]1CC[C@@H]1[C@@H]2CC[C@]2(C)[C@@H](C=NNC(=N)N)CC[C@]12O [17β-guanidinoiminomethyl-5β-androstane-3β,14β-diol]	weak inhibitors of Na^+,K^+ -ATPase	weak positive inotropic agents				
CC(/C=N/NC(=N)N)=C\[C@H]1CC[C@]2(O)[C@@H]3CC[C@@H]4C[C@@H](O)CC[C@]4(C)[C@H]3CC[C@]12C [Comp. I-aa, (E,E)-17β-(3-Guanidinoimino-2-methyl-1-propenyl)-5β-androstane-3β,14β-diol]			251	31.6	148 +/- 5.7 mm Hg	374 +/- 9.5 beats/min.
CC(/C=N/OCCN)=C\[C@H]1CC[C@]2(O)[C@@H]3CC[C@@H]4C[C@@H](O)CC[C@]4(C)[C@H]3CC[C@]12C [Comp. I-af, (E,E)-17β-[3-(2-Aminoethoxyimino)-2-methyl-1-propenyl]-5β-androstone-3β,14β-diol]			31.6	20	146 +/- 6.1 mm Hg	380 +/- 3.9 beats/min.
